Data reported in PMC4177008 (Organic & biomolecular chemistry, 2014).
“Also recorded” adds a separate entry of the source.

What was measured:
[1] = tested on: influenza virus A/Udorn/72 strain (H3N2); assay: MDCK cell-based plaque reduction assay, influenza A/Udorn/72; conditions: for anti-influenza inhibitory activity (result in words) / inhibition to influenza virus at 100 μM / fold improvement of inhibitory activity over HTS hit P114F5: A/Udorn/72 (H3N2); for anti-influenza inhibitory activity (result in words): authors' description of the EC50 data; for EC50: influenza virus A/Udorn/72 strain (H3N2), 50% reduction of plaques in MDCK cells; for inhibition to influenza virus at 100 μM: at a concentration of 100 μM; for fold improvement of inhibitory activity over HTS hit P114F5: compared to P114F5
[2] = tested on: Influenza A/PR/8/34 (H1N1); assay: MDCK cell-based plaque reduction assay, influenza A/PR/8/34; conditions: Influenza A virus, H1N1|PR/8, MDCK
[3] = tested on: influenza A/udorn/72 (H3N2); type: cell-based, influenza A virus
[4] = tested on: Influenza A3/Lufang 93-1(H3N2); assay: MDCK cell-based plaque reduction assay, influenza A3/Lufang 93-1; conditions: Influenza A virus
[5] = tested on: Influenza B/Shenzhen/747; assay: MDCK cell-based plaque reduction assay, influenza B/Shenzhen/747; conditions: Influenza B virus
[6] = tested on: Influenza A1/Jingfang 86-1(H1N1); assay: MDCK cell-based plaque reduction assay, influenza A1/Jingfang 86-1; conditions: Influenza A virus
[7] = tested on: Madin-Darby canine kidney (MDCK) cells; assay: MTT cytotoxicity assay in MDCK cells; type: cell-based; conditions: 24 h, mean ± SD of triplicates
[8] = tested on: human embryonic kidney cells (HEK293 cells); assay: MTT cytotoxicity assay in HEK293 cells; type: cell-based; conditions: HEK 293 cells, 24 h, mean ± SD of triplicates
[9] = tested on: human epithelial carcinoma cell line (HeLa cells); assay: MTT cytotoxicity assay in HeLa cells; type: cell-based; conditions: 24 h, mean ± SD of triplicates
[10] = tested on: MDCK cells, HEK293 cells and HeLa cells; assay: MTT cytotoxicity, three cell lines; type: cell-based

c1ccc2c(OC3CCNCC3)ccnc2c1 [Compound 11h, 4-(Piperidin-4-yloxy)quinolone]
anti-influenza inhibitory activity (result in words) [1]: significantly reduced the activity
EC50 [1]: > 100 µM

CCOC(=O)N1CCC(Sc2ccnc3ccccc23)CC1 [Compound P114F5, ethyl 4-(quinolin-4-ylthio)piperidine-1-carboxylate]
EC50 [2]: 8.78 µM
time-of-addition effect [3]: most effective as an inhibitor of influenza virus; also recorded: no significant anti-influenza activities were observed
EC50 [4]: 11.7 µM
EC50 [5]: 10.9 µM
EC50 [6]: 9.05 µM

CCOC(=O)N1CCC(Sc2ccc(OC)cc2)CC1 [Compound 1e, Ethyl 4-((4-methoxyphenyl)thio)piperidine-1-carboxylate]
anti-influenza inhibitory activity (result in words) [1]: moderate inhibitory activities

CCOC(=O)N1CCC(Sc2cc(-c3ccccc3)nc3ccccc23)CC1 [Compound 1a, Ethyl 4-((2-phenylquinolin-4-yl)thio)piperidine-1-carboxylate]
inhibition to influenza virus at 100 μM [1]: did not show any inhibition

CCOC(=O)N1CCC(Sc2ccncc2)CC1 [Compound 1c, Ethyl 4-(pyridin-4-ylthio)piperidine-1-carboxylate]
inhibition to influenza virus at 100 μM [1]: did not show any inhibition

CCOC(=O)N1CCC(Nc2ccnc3ccccc23)CC1 [Compound 6b, Ethyl 4-(quinolin-4-ylamino)piperidine-1-carboxylate]
anti-influenza inhibitory activity (result in words) [1]: moderate inhibitory activity

CCOC(=O)N1CCC(Sc2ccc(C)cc2)CC1 [Compound 1d, Ethyl 4-(p-tolylthio)piperidine-1-carboxylate]
anti-influenza inhibitory activity (result in words) [1]: moderate inhibitory activities

CC(C)(C)OC(=O)N[C@@H](CC(N)=O)C(=O)N1CCC(Sc2ccnc3ccccc23)CC1 [Compound 12b, (S)-tert-Butyl (4-amino-1,4-dioxo-1-(4-(quinolin-4-ylthio)piperi-din-1-yl)butan-2-yl)carbamate]
EC50 [1]: > 100 µM

CC(C)(C)OC(=O)N1CCC(Oc2ccnc3ccccc23)CC1 [Compound 11e, tert-Butyl 4-(quinolin-4-yloxy)piperidine-1-carboxylate]
EC50 [2]: 0.07 µM
EC50 [4]: 0.06 µM
EC50 [5]: 0.05 µM
MDL50 (μM) mean ± SD [7]: 10061.92 ± 235.86 µM
fold improvement of inhibitory activity over HTS hit P114F5 [1]: 100 fold
MDL50 (μM) mean ± SD [8]: 8101.97 ± 473.16 µM
MDL50 (μM) mean ± SD [9]: 8850.21 ± 406.99 µM
EC50 [6]: 0.1 µM
cytotoxicity (result in words) ([10]; any of the cell lines, up to a concentration of millimolar (mM) range, MTT): did not exhibit cytotoxicity; also recorded: did not observe cytotoxicity
selectivity index value (SI = MLD50/EC50) ([10]; based on cytotoxicity measured by MTT assays of three cell lines): over 160,000

CCOC(=O)N1CCC(Oc2ccnc3ccccc23)CC1 [Compound 6a, Ethyl 4-(quinolin-4-yloxy)piperidine-1-carboxylate]
anti-influenza inhibitory activity (result in words) [1]: good inhibitory activity
fold improvement of inhibitory activity over HTS hit P114F5 [1]: 6 fold

c1ccc2c(OC3CCOCC3)ccnc2c1 [Compound 11j, 4-((Tetrahydro-2H-pyran-4-yl)oxy)quinolone]
EC50 [1]: > 100 µM

CCOC(=O)N1CCC(Sc2cc(Cl)nc3ccccc23)CC1 [Compound 1b, Ethyl 4-((2-chloroquinolin-4-yl)thio)piperidine-1-carboxylate]
anti-influenza inhibitory activity (result in words) [1]: moderate inhibitory activities

CC(C)(C)OC(=O)N[C@@H](Cc1ccccc1)C(=O)N1CCC(Sc2ccnc3ccccc23)CC1 [Compound 12a, (S)-tert-Bbutyl (1-oxo-3-phenyl-1-(4-(quinolin-4-ylthio)piperidin-1-yl)propan-2-yl)carbamate]
EC50 [1]: 15.5 µM

CCOC(=O)N1CCC(Sc2cccc3ccccc23)CC1 [Compound 1f, Ethyl 4-(naphthalen-1-ylthio)piperidine-1-carboxylate]
anti-influenza inhibitory activity (result in words) [1]: moderate inhibitory activities
